# Reference: patent US11357779B2 (G1 Therapeutics, Inc., priority 2018, dated 2022)
# Like-named read-outs stand apart in the source and are kept apart here.
# Test: Noncompartmental pharmacokinetic parameters (Cmax, Tmax, AUC, Racc) in QD and BID cohorts of Form B
# Assay type: in vivo, human
# Details: human, plasma, oral, Compound III
# Protocol: Analysis of plasma concentration versus time data for calculation of standard pharmacokinetic (PK) parameters following oral administration was conducted using Phoenix WinNonlin version 6.3 using actual blood sampling times.
# The following pharmacokinetic parameters were calculated from the concentration versus time data obtained in Example 1 for each of the above QD (200 mg, 300 mg, 400 mg, 500 mg, or 650 mg dosed) and BID (100 mg, 150 mg, or 200 mg doses) Form B of Compound II dosage cohorts: • Cmax—the observed peak plasma concentration determined from the plasma concentration versus time data obtained on Day 1 and Day 29, as applicable; • Tmax—the time to reach the observed peak plasma concentration from the plasma concentration versus time data obtained on Day 1 and Day 29, as applicable; • AUC—area under the plasma concentration versus time curve during a dosing interval on Day 1 and Day 29, as applicable; and • Racc—accumulation ratio calculated as AUCDay 29/AUCDay 1.
smiles,measurement,setting,value
"O=C1NCC2(CCCCC2)n2c1cc1cnc(Nc3ccc(N4CCNCC4)cn3)nc12 [Compound III, 2′-((5-(piperazin-1-yl)pyridin-2-yl)amino)-7′,8′-dihydro-6′H-spiro[cyclohexane-1,9′-pyrazino[1′,2′:1,5]pyrrolo[2,3-d]pyrimidin]-6′-one]",AUC(0-t),"150 mg, 150 mg BID of Form B, Cohort 7, Day 1, read-out: AUClast (Median)",16.3 ng·h/mL
same,Cmax,"150 mg, 150 mg BID of Form B, Cohort 7, Day 1, read-out: Cmax (Mean)",3.2 ng/mL
same,Cmax,"150 mg, 150 mg BID of Form B, Cohort 7, Day 1, read-out: Cmax (Median)",3 ng/mL
same,Tmax,"150 mg, 150 mg BID of Form B, Cohort 7, Day 1, read-out: Tmax (Mean)",3 h
same,Tmax,"150 mg, 150 mg BID of Form B, Cohort 7, Day 1, read-out: Tmax (Median)",3 h
same,AUC(0-t),"150 mg, 150 mg BID of Form B, Cohort 7, Day 29, read-out: AUClast (Mean)",47.9 ng·h/mL
same,AUC(0-t),"150 mg, 150 mg BID of Form B, Cohort 7, Day 29, read-out: AUClast (Median)",23.3 ng·h/mL
same,Cmax,"150 mg, 150 mg BID of Form B, Cohort 7, Day 29, read-out: Cmax (Mean)",6.23 ng/mL
same,Cmax,"150 mg, 150 mg BID of Form B, Cohort 7, Day 29, read-out: Cmax (Median)",3.55 ng/mL
same,Tmax,"150 mg, 150 mg BID of Form B, Cohort 7, Day 29, read-out: Tmax (Mean)",3 h
same,Tmax,"150 mg, 150 mg BID of Form B, Cohort 7, Day 29, read-out: Tmax (Median)",3 h
same,AUC(0-t),"200 mg, 200 mg BID of Form B, Cohort 8, Day 1, read-out: AUClast (Mean)",17.2 ng·h/mL
same,AUC(0-t),"200 mg, 200 mg BID of Form B, Cohort 8, Day 1, read-out: AUClast (Median)",18.6 ng·h/mL
same,Cmax,"200 mg, 200 mg BID of Form B, Cohort 8, Day 1, read-out: Cmax (Mean)",2.87 ng/mL
same,Cmax,"200 mg, 200 mg BID of Form B, Cohort 8, Day 1, read-out: Cmax (Median)",3 ng/mL
same,Tmax,"200 mg, 200 mg BID of Form B, Cohort 8, Day 1, read-out: Tmax (Mean)",4.75 h
same,Tmax,"200 mg, 200 mg BID of Form B, Cohort 8, Day 1, read-out: Tmax (Median)",5 h
same,AUC(0-t),"200 mg, 200 mg BID of Form B, Cohort 8, Day 29, read-out: AUClast (Mean)",22 ng·h/mL
same,AUC(0-t),"200 mg, 200 mg BID of Form B, Cohort 8, Day 29, read-out: AUClast (Median)",20.1 ng·h/mL
same,Cmax,"200 mg, 200 mg BID of Form B, Cohort 8, Day 29, read-out: Cmax (Mean)",2.79 ng/mL
same,Cmax,"200 mg, 200 mg BID of Form B, Cohort 8, Day 29, read-out: Cmax (Median)",2.77 ng/mL
same,Tmax,"200 mg, 200 mg BID of Form B, Cohort 8, Day 29, read-out: Tmax (Mean)",6.33 h
same,Tmax,"200 mg, 200 mg BID of Form B, Cohort 8, Day 29, read-out: Tmax (Median)",4 h
same,AUC(0-t),"200 mg, 200 mg QD of Form B, Cohort 1, Day 1, read-out: AUClast (Mean)",23.7 ng·h/mL
same,AUC(0-t),"200 mg, 200 mg QD of Form B, Cohort 1, Day 1, read-out: AUClast (Median)",21.3 ng·h/mL
same,Cmax,"200 mg, 200 mg QD of Form B, Cohort 1, Day 1, read-out: Cmax (Mean)",4.18 ng/mL
same,Cmax,"200 mg, 200 mg QD of Form B, Cohort 1, Day 1, read-out: Cmax (Median)",3.88 ng/mL
same,Tmax,"200 mg, 200 mg QD of Form B, Cohort 1, Day 1, read-out: Tmax (Mean)",4.17 h
same,Tmax,"200 mg, 200 mg QD of Form B, Cohort 1, Day 1, read-out: Tmax (Median)",4 h
same,AUC(0-t),"200 mg, 200 mg QD of Form B, Cohort 1, Day 29, read-out: AUClast (Mean)",27.9 ng·h/mL
same,AUC(0-t),"200 mg, 200 mg QD of Form B, Cohort 1, Day 29, read-out: AUClast (Median)",25.4 ng·h/mL
same,Cmax,"200 mg, 200 mg QD of Form B, Cohort 1, Day 29, read-out: Cmax (Mean)",3.14 ng/mL
same,Cmax,"200 mg, 200 mg QD of Form B, Cohort 1, Day 29, read-out: Cmax (Median)",2.52 ng/mL
same,Tmax,"200 mg, 200 mg QD of Form B, Cohort 1, Day 29, read-out: Tmax (Mean)",4.2 h
same,Tmax,"200 mg, 200 mg QD of Form B, Cohort 1, Day 29, read-out: Tmax (Median)",4 h
same,AUC(0-t),"300 mg, 300 mg QD of Form B, Cohort 2, Day 1, read-out: AUClast (Mean)",43.1 ng·h/mL
same,AUC(0-t),"300 mg, 300 mg QD of Form B, Cohort 2, Day 1, read-out: AUClast (Median)",53.1 ng·h/mL
same,Cmax,"300 mg, 300 mg QD of Form B, Cohort 2, Day 1, read-out: Cmax (Mean)",4.81 ng/mL
same,Cmax,"300 mg, 300 mg QD of Form B, Cohort 2, Day 1, read-out: Cmax (Median)",6.21 ng/mL
same,Tmax,"300 mg, 300 mg QD of Form B, Cohort 2, Day 1, read-out: Tmax (Mean)",3.67 h
same,Tmax,"300 mg, 300 mg QD of Form B, Cohort 2, Day 1, read-out: Tmax (Median)",4 h
same,AUC(0-t),"300 mg, 300 mg QD of Form B, Cohort 2, Day 29, read-out: AUClast (Mean)",66.2 ng·h/mL
same,AUC(0-t),"300 mg, 300 mg QD of Form B, Cohort 2, Day 29, read-out: AUClast (Median)",56.1 ng·h/mL
same,Cmax,"300 mg, 300 mg QD of Form B, Cohort 2, Day 29, read-out: Cmax (Mean)",5.44 ng/mL
same,Cmax,"300 mg, 300 mg QD of Form B, Cohort 2, Day 29, read-out: Cmax (Median)",5.56 ng/mL
same,Tmax,"300 mg, 300 mg QD of Form B, Cohort 2, Day 29, read-out: Tmax (Mean)",5.33 h
same,Tmax,"300 mg, 300 mg QD of Form B, Cohort 2, Day 29, read-out: Tmax (Median)",4 h
same,AUC(0-t),"400 mg, 400 mg QD of Form B, Cohort 3, Day 1, read-out: AUClast (Mean)",25.6 ng·h/mL
same,AUC(0-t),"400 mg, 400 mg QD of Form B, Cohort 3, Day 1, read-out: AUClast (Median)",29.2 ng·h/mL
same,Cmax,"400 mg, 400 mg QD of Form B, Cohort 3, Day 1, read-out: Cmax (Mean)",4.85 ng/mL
same,Cmax,"400 mg, 400 mg QD of Form B, Cohort 3, Day 1, read-out: Cmax (Median)",4.66 ng/mL
same,Tmax,"400 mg, 400 mg QD of Form B, Cohort 3, Day 1, read-out: Tmax (Mean)",4.33 h
same,Tmax,"400 mg, 400 mg QD of Form B, Cohort 3, Day 1, read-out: Tmax (Median)",6 h
same,AUC(0-t),"400 mg, 400 mg QD of Form B, Cohort 3, Day 29, read-out: AUClast (Mean)",42.6 ng·h/mL
same,AUC(0-t),"400 mg, 400 mg QD of Form B, Cohort 3, Day 29, read-out: AUClast (Median)",40.9 ng·h/mL
same,Cmax,"400 mg, 400 mg QD of Form B, Cohort 3, Day 29, read-out: Cmax (Mean)",3.5 ng/mL
same,Cmax,"400 mg, 400 mg QD of Form B, Cohort 3, Day 29, read-out: Cmax (Median)",3.4 ng/mL
same,Tmax,"400 mg, 400 mg QD of Form B, Cohort 3, Day 29, read-out: Tmax (Mean)",5.33 h
same,Tmax,"400 mg, 400 mg QD of Form B, Cohort 3, Day 29, read-out: Tmax (Median)",6 h
same,AUC(0-t),"500 mg, 500 mg QD of Form B, Cohort 4, Day 1, read-out: AUClast (Mean)",77.7 ng·h/mL
same,AUC(0-t),"500 mg, 500 mg QD of Form B, Cohort 4, Day 1, read-out: AUClast (Median)",79 ng·h/mL
same,Cmax,"500 mg, 500 mg QD of Form B, Cohort 4, Day 1, read-out: Cmax (Mean)",7.98 ng/mL
same,Cmax,"500 mg, 500 mg QD of Form B, Cohort 4, Day 1, read-out: Cmax (Median)",8.03 ng/mL
same,Tmax,"500 mg, 500 mg QD of Form B, Cohort 4, Day 1, read-out: Tmax (Mean)",5.5 h
same,Tmax,"500 mg, 500 mg QD of Form B, Cohort 4, Day 1, read-out: Tmax (Median)",6 h
same,AUC(0-t),"500 mg, 500 mg QD of Form B, Cohort 4, Day 29, read-out: AUClast (Mean)",66.4 ng·h/mL
same,AUC(0-t),"500 mg, 500 mg QD of Form B, Cohort 4, Day 29, read-out: AUClast (Median)",69.6 ng·h/mL
same,Cmax,"500 mg, 500 mg QD of Form B, Cohort 4, Day 29, read-out: Cmax (Mean)",5.98 ng/mL
same,Cmax,"500 mg, 500 mg QD of Form B, Cohort 4, Day 29, read-out: Cmax (Median)",5.37 ng/mL
same,Tmax,"500 mg, 500 mg QD of Form B, Cohort 4, Day 29, read-out: Tmax (Mean)",3.67 h
same,Tmax,"500 mg, 500 mg QD of Form B, Cohort 4, Day 29, read-out: Tmax (Median)",4 h
same,AUC(0-t),"650 mg, 650 mg QD of Form B, Cohort 5, Day 1, read-out: AUClast (Mean)",123 ng·h/mL
same,AUC(0-t),"650 mg, 650 mg QD of Form B, Cohort 5, Day 1, read-out: AUClast (Median)",125 ng·h/mL
same,Cmax,"650 mg, 650 mg QD of Form B, Cohort 5, Day 1, read-out: Cmax (Mean)",10.9 ng/mL
same,Cmax,"650 mg, 650 mg QD of Form B, Cohort 5, Day 1, read-out: Cmax (Median)",10.4 ng/mL
same,Tmax,"650 mg, 650 mg QD of Form B, Cohort 5, Day 1, read-out: Tmax (Mean)",6.67 h
same,Tmax,"650 mg, 650 mg QD of Form B, Cohort 5, Day 1, read-out: Tmax (Median)",7 h
same,AUC(0-t),"650 mg, 650 mg QD of Form B, Cohort 5, Day 29, read-out: AUClast (Mean)",125 ng·h/mL
same,AUC(0-t),"650 mg, 650 mg QD of Form B, Cohort 5, Day 29, read-out: AUClast (Median)",125 ng·h/mL
same,Cmax,"650 mg, 650 mg QD of Form B, Cohort 5, Day 29, read-out: Cmax (Mean)",8.7 ng/mL
same,Cmax,"650 mg, 650 mg QD of Form B, Cohort 5, Day 29, read-out: Cmax (Median)",8.7 ng/mL
same,Tmax,"650 mg, 650 mg QD of Form B, Cohort 5, Day 29, read-out: Tmax (Mean)",7 h
same,Tmax,"650 mg, 650 mg QD of Form B, Cohort 5, Day 29, read-out: Tmax (Median)",7 h
